Laboratory results taken from PMC9865903, “Improving the Antimycobacterial Drug Clofazimine through Formation of Organic Salts by Combination with Fluoroquinolones” (International Journal of Molecular Sciences, 2023).
Values joined by “and” are separate entries in the source; they are usually repeats but may differ in a detail not shown here. Equal values may be shown once.

Legend:
[1] = Simultaneous thermal analysis (STA: thermogravimetry with DSC); assay type: physicochemical; conditions: heating from room temperature to 500 °C at 5 °C/min, value in parentheses after melting point
Text: Considering that thermal stability is an important issue for any API or derived formulation, both API-OSs were next tested by simultaneous thermal analysis (STA) which combines thermogravimetry with differential scanning calorimetry. Thermograms were obtained for the API-OSs and their parent fluoroquinolones (Figure 2), providing their respective melting points and decomposition temperatures. As shown in both Figure 2 and Table 1, the two new API-OSs have melting points lower than those of their respective parent APIs, as expected, but in all cases well above 100 °C, which is generally acknowledged as the threshold temperature separating common ILs from other types of GUMBOS. […] Therefore, the thermostability of this parent antimycobacterial drug is improved when it is forming an ionic pair with the selected fluoroquinolones.
The thermal stability of the compounds was evaluated using a Hitachi STA7200RV instrument (Scancsi, Vila Nova de Gaia, Portugal), following the manufacturer’s instructions. The compounds were subjected to heating from room temperature to 500 °C at a speed of 5 °C/min, obtaining the thermograms provided in Figure 2.

[2] = physchem; conditions: organic solvent or mixture
Text: DMSO has been previously established as an adequate solvent for studies focused on Clf, including susceptibility testing on Mycobacteria.

[3] = system: M. avium 2447 SmT; experiment: Antimycobacterial activity in axenic culture, broth microdilution with resazurin; assay type: cell-based; conditions: Mycobacterium avium, 168 h, 7 days at 37 °C, 4PL interpolation, parentheses = 95% confidence interval
Procedure: The susceptibility of M. avium to the API-OSs and their parent drugs was first assessed in axenic culture to determine the IC50 of each test compound. To this end, the bacteria were incubated with increasing concentrations of the compounds for 7 days at 37 °C and their viability was assessed by the resazurin assay.
Mycobacterium avium 2447 smooth transparent (SmT) strain (kindly provided by Dr. F. Portaels, Institute of Tropical Medicine, Antwerp, Belgium) was grown to the mid-log phase in Middlebrook 7H9 medium (BD Difco^TM, Fisher Scientific, Porto Salvo, Portugal) containing 0.2% of glycerol (VWR International, Carnaxide, Portugal) and 10% of Albumin-Dextrose-Catalase (ADC, Merck KGaA, Darmstadt, Germany) supplement at 37 °C, as described previously.
The antimicrobial activity of the different compounds was assessed by broth microdilution, following the Clinical and Laboratory Standards Institute (CLSI) guidelines and as described previously, using stock solutions of the compounds in DMSO, due to the negligible solubility of Clf in water. Briefly, M. avium was grown in Middlebrook 7H9 medium to the exponential phase and 1 to 5 × 10^5 CFU/mL of bacteria was seeded in 96-well plates with increasing concentrations of the compounds. […] After 6 days of incubation, bacterial viability was assessed by resazurin reduction. Then, 10% (v/v) of resazurin (Sigma-Aldrich, St. Louis, MO, USA) at 2.5 mM in phosphate-buffered saline (PBS, Sigma-Aldrich, St. Louis, MO, USA) was added to each well, and after 24 h of incubation at 37 °C, the fluorescence of resorufin, resulting from the conversion of resazurin by metabolically active cells, was measured at λex = 530 nm and λem = 590 nm in a Synergy^TM Mx microplate reader from BioTek (Agilent Technologies Inc., Santa Clara, CA, USA) using the Gen5 software also from BioTek. The results are expressed as the percentage of the fluorescence obtained in experimental wells relative to the fluorescence obtained in nontreated wells.
The viability of both mycobacteria and host macrophages was determined by resazurin reduction as detailed above. […]

[4] = Toxicity to infected host macrophages, resazurin reduction; assay type: cell-based, murine (C57BL/6 mice); conditions: male, C57BL/6, mouse; BMM infected with M. avium 2447 SmT, 5 days at 37 °C and 7% CO2, resazurin; 4PL interpolation; parentheses = 95% confidence interval; read-out: LC50
Procedure: Considering that, after invading its mammalian host, M. avium replicates mainly inside macrophages, the toxicity of test compounds to infected murine bone marrow-derived macrophages (BMM) was also assessed. This was carried out by treating BMM infected with M. avium 2447 SmT with increasing concentrations of the test compounds for 5 days at 37 °C and 7% CO2. Macrophage viability was assessed through a resazurin reduction assay. As shown in Table 1 and Figure 4, though being more toxic to mammalian cells than their parent fluoroquinolones, the Clf-derived OSs seem less toxic to BMM than Clf itself. We are aware that the confidence intervals for LD50 values shown in Table 1 for Clf and its derived OSs have some degree of overlap which, alongside the large standard deviations depicted on the macrophage viability curves shown in Figure 4, are not statistically significant different.
Macrophages were derived from the bone marrow of male C57BL/6 mice bred at the i3S animal facility and infected with M. avium 2447 SmT as described previously. Immediately after infection, BMM were treated with different concentrations of each compound. Each condition was tested in triplicate. The intracellular growth of M. avium 2447 SmT was evaluated 5 days after infection, by colony-forming units (CFUs) assay, plating the bacteria in Middlebrook 7H10 agar (BD DifcoTM, Fisher Scientific, Porto Salvo, Portugal) supplemented with 10% Oleic Acid-Albumin-Dextrose-Catalase (OADC; Merck KGaA, Darmstadt, Germany) for at least 7 days at 37 °C. The viability of macrophages was determined by resazurin reduction as detailed above for mycobacteria.
The viability of both mycobacteria and host macrophages was determined by resazurin reduction as detailed above. IC50 (concentration that inhibits 50% of mycobacterial growth after 7 days of incubation) and LD50 (concentration that inhibits 50% of macrophage viability) values were interpolated by fitting the experimental data through a 4PL nonlinear sigmoidal curve using the GraphPad Prism software version 9 (GraphPad Software Inc., La Jolla, CA, USA). […]

[5] = Net charge at physiological pH; assay type: physicochemical; conditions: at physiological pH 7.4
Procedure: Table 1 Physico-chemical properties and in vitro effects of the API-OSs and their parent drugs. The compounds were tested against both axenic cultures of M. avium 2447 SmT (IC50) and mammalian host cells (bone marrow-derived macrophages, BMM, LC50) infected with M. avium 2447 SmT. ^1. | column: Net Charge ^2

[6] = set-up: method as in PMID 7617530, PMID 35300192; conditions: due to poor solubility in aqueous/polar media; cited from earlier work
[7] = in vivo, po; cited from earlier work
[8] = cited from earlier work

Structure (SMILES) | Decomposition Temperature [1] | solubility [2] | IC50 [3] [µM] | CC50 at 5 days [4] [µM] | Net Charge [5] | Biopharmaceutics Classification System class [6] | absorption rates in humans [7] [%] | solubility in water [8]
CCn1cc(C(=O)O)c(=O)c2cc(F)c(N3CCNCC3)cc21 [Nf, norfloxacin] | 206.1 (222.0) °C | 11000 µg/mL and 34400 µM | 7.93 | > 100 | −1 |  |  | 
CC(C)/N=c1\cc2n(-c3ccc(Cl)cc3)c3ccccc3nc-2cc1Nc1ccc(Cl)cc1 [Clf, clofazimine] | 221.9 (258.0) °C | 4800 µg/mL and 10200 µM | 0.33 | 4.1 | +1 | class II | 45 to 62 | virtually insoluble
CC1COc2c(N3CCN(C)CC3)c(F)cc3c(=O)c(C(=O)O)cn1c23 (centres unmarked) [Of, ofloxacin] | 274.8 (318.8) °C |  | 3.85 | > 100 | −1 |  |  | 
